Laboratory results from patent US10336732B2, “1-heterocyclyl isochromanyl compounds and analogs for treating CNS disorders” (Sunovion Pharmaceuticals Inc., priority 2015, dated 2019).

tested on: mice; assay: Neuropharmacological assay (SmartCube), behavioral signature of compound-treated mice; type: in vivo; conditions: i.p. 15 min before behavioral test, most efficacious dose(s) of 3 doses
Method in brief: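 Mice received compound i.p. in NMP/PEG/propylene glycol vehicle at 3 doses, 15 min before testing. Video-captured behavior was algorithmically compared with a reference-drug signature database.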

Structure (SMILES)	AD: ADHD (probability that behavioral signature matches class)	AG: analgesic (probability that behavioral signature matches class)	AX: anxiolytic (probability that behavioral signature matches class)	CE: cognitive enhancer (probability that behavioral signature matches class)	DP: anti-depressant (probability that behavioral signature matches class)	HA: hallucinogen (probability that behavioral signature matches class)	MS: mood stabilizer (probability that behavioral signature matches class)	PS: anti-psychotic (probability that behavioral signature matches class)	SD: sedative hypnotic (probability that behavioral signature matches class)	UN: uncharacterized CNS activity (probability that behavioral signature matches class)
Fc1ccc2c(c1)CCO[C@@H]2[C@@H]1CCCN1 [Compound I-10, (S)-2-((S)-6-fluoroisochroman-1-yl)pyrrolidine]	+ (LOQ ≤ + <5%)	++ (5% ≤ ++ <25%)	++ (5% ≤ ++ <25%)	++ (5% ≤ ++ <25%)	++ (5% ≤ ++ <25%)	+ (LOQ ≤ + <5%)	+ (LOQ ≤ + <5%)	++ (5% ≤ ++ <25%)	+ (LOQ ≤ + <5%)	+ (LOQ ≤ + <5%)
c1cc(-c2ccc3c(c2)CCO[C@@H]3[C@@H]2CCCN2)on1 [Compound I-55, 5-((S)-1-((S)-pyrrolidin-2-yl)isochroman-6-yl)isoxazole]	+ (LOQ ≤ + <5%)	+ (LOQ ≤ + <5%)	+ (LOQ ≤ + <5%)	+ (LOQ ≤ + <5%)	+ (LOQ ≤ + <5%)	+ (LOQ ≤ + <5%)	+ (LOQ ≤ + <5%)	+ (LOQ ≤ + <5%)	+ (LOQ ≤ + <5%)	+ (LOQ ≤ + <5%)
c1ccc2c(c1)CCCO[C@@H]2[C@H]1CCCN1 [Compound I-99, (R)-2-((S)-1,3,4,5-tetrahydrobenzo[c]oxepin-1-yl)pyrrolidine]	+ (LOQ ≤ + <5%)	++ (5% ≤ ++ <25%)	++ (5% ≤ ++ <25%)	++ (5% ≤ ++ <25%)	+++ (25% ≤ +++ <50%)	+ (LOQ ≤ + <5%)	+ (LOQ ≤ + <5%)	++ (5% ≤ ++ <25%)	++ (5% ≤ ++ <25%)	+ (LOQ ≤ + <5%)
Fc1cccc2c1[C@H]([C@H]1CCCN1)OCC2 [Compound I-4, (R)-2-((R)-8-fluoroisochroman-1-yl)pyrrolidine]	+ (LOQ ≤ + <5%)	++ (5% ≤ ++ <25%)	+++ (25% ≤ +++ <50%)	++ (5% ≤ ++ <25%)	++ (5% ≤ ++ <25%)	+ (LOQ ≤ + <5%)	+ (LOQ ≤ + <5%)	++ (5% ≤ ++ <25%)	+ (LOQ ≤ + <5%)	+ (LOQ ≤ + <5%)
Fc1ccc2c(c1)CCO[C@@H]2[C@@H]1CCN1 [Compound I-89, (S)-2-((S)-6-fluoroisochroman-1-yl)azetidine]	++ (5% ≤ ++ <25%)	++ (5% ≤ ++ <25%)	++ (5% ≤ ++ <25%)	++ (5% ≤ ++ <25%)	+++ (25% ≤ +++ <50%)	+ (LOQ ≤ + <5%)	++ (5% ≤ ++ <25%)	+++ (25% ≤ +++ <50%)	+ (LOQ ≤ + <5%)	+ (LOQ ≤ + <5%)
Clc1ccc2c(c1)[C@@H]([C@H]1CCCN1)OCC2 [Compound I-32, (R)-2-((S)-7-chloroisochroman-1-yl)pyrrolidine]	+ (LOQ ≤ + <5%)	+++ (25% ≤ +++ <50%)	++ (5% ≤ ++ <25%)	++ (5% ≤ ++ <25%)	++ (5% ≤ ++ <25%)	+ (LOQ ≤ + <5%)	+ (LOQ ≤ + <5%)	+++ (25% ≤ +++ <50%)	++ (5% ≤ ++ <25%)	+ (LOQ ≤ + <5%)
Cc1ccc2c(c1)[C@H]([C@H]1CCCN1)OCC2 [Compound I-28, (R)-2-((R)-7-methylisochroman-1-yl)pyrrolidine]	+ (LOQ ≤ + <5%)	++ (5% ≤ ++ <25%)	+++ (25% ≤ +++ <50%)	+ (LOQ ≤ + <5%)	++ (5% ≤ ++ <25%)	+ (LOQ ≤ + <5%)	+ (LOQ ≤ + <5%)	++ (5% ≤ ++ <25%)	+ (LOQ ≤ + <5%)	++ (5% ≤ ++ <25%)
Cc1ccc2c(c1)[C@@H]([C@H]1CCCN1)OCC2 [Compound I-27, (R)-2-((S)-7-methylisochroman-1-yl)pyrrolidine]	+ (LOQ ≤ + <5%)	++ (5% ≤ ++ <25%)	+++ (25% ≤ +++ <50%)	++ (5% ≤ ++ <25%)	++ (5% ≤ ++ <25%)	+ (LOQ ≤ + <5%)	++ (5% ≤ ++ <25%)	++ (5% ≤ ++ <25%)	+ (LOQ ≤ + <5%)	+ (LOQ ≤ + <5%)
Clc1ccc2c(c1)[C@@H]([C@@H]1CCCN1)OCC2 [Compound I-30, (S)-2-((S)-7-chloroisochroman-1-yl)pyrrolidine]	+ (LOQ ≤ + <5%)	++ (5% ≤ ++ <25%)	+++ (25% ≤ +++ <50%)	++ (5% ≤ ++ <25%)	++ (5% ≤ ++ <25%)	+ (LOQ ≤ + <5%)	+ (LOQ ≤ + <5%)	+++ (25% ≤ +++ <50%)	++ (5% ≤ ++ <25%)	+ (LOQ ≤ + <5%)
Fc1cccc2c1[C@@H]([C@@H]1CCN1)OCC2 [Compound I-84, (S)-2-((S)-8-fluoroisochroman-1-yl)azetidine]	+ (LOQ ≤ + <5%)	+ (LOQ ≤ + <5%)	++ (5% ≤ ++ <25%)	+ (LOQ ≤ + <5%)	++ (5% ≤ ++ <25%)	+ (LOQ ≤ + <5%)	++ (5% ≤ ++ <25%)	++++ (50% ≤ ++++)	++ (5% ≤ ++ <25%)	+ (LOQ ≤ + <5%)
c1ccc2c(c1)CCO[C@@H]2[C@H]1CCN1 [Compound I-81, (R)-2-((S)-isochroman-1-yl)azetidine]	+ (LOQ ≤ + <5%)	++ (5% ≤ ++ <25%)	+++ (25% ≤ +++ <50%)	++ (5% ≤ ++ <25%)	++ (5% ≤ ++ <25%)	+ (LOQ ≤ + <5%)	+ (LOQ ≤ + <5%)	++ (5% ≤ ++ <25%)	+++ (25% ≤ +++ <50%)	+ (LOQ ≤ + <5%)

same assay, conditions: i.p. 15 min before behavioral test, most efficacious dose(s) of 3 doses

Structure (SMILES)	XG: anxiogenic (probability that behavioral signature matches class)
Fc1ccc2c(c1)CCO[C@@H]2[C@@H]1CCCN1 [Compound I-10, (S)-2-((S)-6-fluoroisochroman-1-yl)pyrrolidine]	+ (LOQ ≤ + <5%)
c1cc(-c2ccc3c(c2)CCO[C@@H]3[C@@H]2CCCN2)on1 [Compound I-55, 5-((S)-1-((S)-pyrrolidin-2-yl)isochroman-6-yl)isoxazole]	+ (LOQ ≤ + <5%)
c1ccc2c(c1)CCCO[C@@H]2[C@H]1CCCN1 [Compound I-99, (R)-2-((S)-1,3,4,5-tetrahydrobenzo[c]oxepin-1-yl)pyrrolidine]	+ (LOQ ≤ + <5%)
Fc1cccc2c1[C@H]([C@H]1CCCN1)OCC2 [Compound I-4, (R)-2-((R)-8-fluoroisochroman-1-yl)pyrrolidine]	+ (LOQ ≤ + <5%)
Fc1ccc2c(c1)CCO[C@@H]2[C@@H]1CCN1 [Compound I-89, (S)-2-((S)-6-fluoroisochroman-1-yl)azetidine]	+ (LOQ ≤ + <5%)
Clc1ccc2c(c1)[C@@H]([C@H]1CCCN1)OCC2 [Compound I-32, (R)-2-((S)-7-chloroisochroman-1-yl)pyrrolidine]	+ (LOQ ≤ + <5%)
Cc1ccc2c(c1)[C@H]([C@H]1CCCN1)OCC2 [Compound I-28, (R)-2-((R)-7-methylisochroman-1-yl)pyrrolidine]	+ (LOQ ≤ + <5%)
Cc1ccc2c(c1)[C@@H]([C@H]1CCCN1)OCC2 [Compound I-27, (R)-2-((S)-7-methylisochroman-1-yl)pyrrolidine]	+ (LOQ ≤ + <5%)
Clc1ccc2c(c1)[C@@H]([C@@H]1CCCN1)OCC2 [Compound I-30, (S)-2-((S)-7-chloroisochroman-1-yl)pyrrolidine]	+ (LOQ ≤ + <5%)
Fc1cccc2c1[C@@H]([C@@H]1CCN1)OCC2 [Compound I-84, (S)-2-((S)-8-fluoroisochroman-1-yl)azetidine]	+ (LOQ ≤ + <5%)
c1ccc2c(c1)CCO[C@@H]2[C@H]1CCN1 [Compound I-81, (R)-2-((S)-isochroman-1-yl)azetidine]	+ (LOQ ≤ + <5%)
